≈ marks a conversion by molar mass, not a printed value. Read-outs that look alike come from different tables or passages of the source.
Experiments:
[1] = test system: E.faecalis ATCC 51299(VRE&HLAR); assay: MIC by microbroth dilution method; assay type: cell-based
MRSA ATCC 43300 = assay: MIC by microbroth dilution method; assay type: cell-based, S. aureus
[2] = test system: S.aureus ATCC 700699 Mu50; assay: MIC by microbroth dilution method; assay type: cell-based
S.aureus DB00026 = assay: MIC by microbroth dilution method; assay type: cell-based
E.faecium ATCC 3567 = assay: MIC by microbroth dilution method; assay type: cell-based
MRSA ATCC BAA 39 = assay: MIC by microbroth dilution method; assay type: cell-based, S. aureus
MRSE ATCC 35984 = assay: MIC by microbroth dilution method; assay type: cell-based, S. epidermidis
[3] = test system: Mycobacterium tuberculosis H37Rv; assay: Anti-TB activity, colorimetric resazurin microtiter assay; assay type: cell-based; details: read-out: MIC, Minimum Inhibitory Concentration (90%)
MRSA 562 = assay: MIC by microbroth dilution method; assay type: cell-based, S. aureus
[4] = test system: S.aureus 13709 LNZ mutant; assay type: cell-based
MRSA 0-2657 = assay: MIC by microbroth dilution method; assay type: cell-based, S. aureus
S.aureus ATCC 29213 = assay: MIC by microbroth dilution method; assay type: cell-based
E.faecalis SP 346 VRE = assay: MIC by microbroth dilution method; assay type: cell-based
S.aureus2 (PVL + ve) = assay type: cell-based, S. aureus
S.epidermidis ATCC 12228 = assay: MIC by microbroth dilution method; assay type: cell-based
[5] = test system: S.aureus ATCC 13709 Smith; assay: MIC by microbroth dilution method; assay type: cell-based
E.faecium 134 VRE = assay: MIC by microbroth dilution method; assay type: cell-based
S.epidermis St 358 = assay: MIC by microbroth dilution method; assay type: cell-based, S. epidermidis
MRSA DB 00026 = assay: MIC by microbroth dilution method; assay type: cell-based, S. aureus
E.faecalis ATCC 19433 = assay: MIC by microbroth dilution method; assay type: cell-based
E.coli 7632 = assay: MIC by microbroth dilution method; assay type: cell-based
MRSE ATCC 35983 = assay: MIC by microbroth dilution method; assay type: cell-based, S. epidermidis
S.epidermidis ATCC 14990 = assay: MIC by microbroth dilution method; assay type: cell-based
[6] = test system: S.aureus ATCC 49775 PVL + ve; assay type: cell-based
MRSA 252 BAA 1720 = assay: MIC by microbroth dilution method; assay type: cell-based, S. aureus
E.faecium ATCC 19434 = assay: MIC by microbroth dilution method; assay type: cell-based
E.faecalis ATCC 29212 = assay: MIC by microbroth dilution method; assay type: cell-based
E.faecium ATCC 49224 = assay: MIC by microbroth dilution method; assay type: cell-based
[7] = test system: S.aureus ATCC Newman 25904; assay: MIC by microbroth dilution method; assay type: cell-based
E.faecium 06076 VRE = assay: MIC by microbroth dilution method; assay type: cell-based
E.faecium ATCC 35667 = assay: MIC by microbroth dilution method; assay type: cell-based
E.faecium 6A VRE = assay: MIC by microbroth dilution method; assay type: cell-based
[8] = Mycobacterium tuberculosis, H37RV

Work on `COC(=O)NC[C@H]1CN(c2cc(F)c(N3CC[Si](C)(C)CC3)c(F)c2)C(=O)O1` [NDS-10053, (S)-methyl(3-(4-(4,4-dimethyl-1,4-azasilinan-1-yl)-3,5-difluorophenyl)-2-oxooxazolidin-5-yl)methylcarbamate] yielded an MIC [1] of 16 µg/mL (≈ 38.7 µM), an MIC (MRSA ATCC 43300) of 16 µg/mL (≈ 38.7 µM) and an MIC [2] of 8 µg/mL (≈ 19.3 µM). It also gave an MIC (S.aureus DB00026) of 16 µg/mL (≈ 38.7 µM), an MIC (E.faecium ATCC 3567) of 16 µg/mL (≈ 38.7 µM) and an MIC (MRSA ATCC BAA 39) of 8 µg/mL (≈ 19.3 µM). For the same compound, the MIC (MRSE ATCC 35984) was 8 µg/mL (≈ 19.3 µM), the MIC [3, 8] was 50 µg/mL (≈ 121 µM) and the MIC (MRSA 562) was 16 µg/mL (≈ 38.7 µM). It also gave an MIC [4] greater than 32 µg/mL, an MIC (MRSA 0-2657) of 8 µg/mL (≈ 19.3 µM) and an MIC (S.aureus ATCC 29213) of 16 µg/mL (≈ 38.7 µM). It also gave an MIC (E.faecalis SP 346 VRE) of 32 µg/mL (≈ 77.4 µM), an MIC (S.aureus2 (PVL + ve)) of 16 µg/mL (≈ 38.7 µM) and an MIC (S.epidermidis ATCC 12228) of 8 µg/mL (≈ 19.3 µM). The MIC [5] was 16 µg/mL (≈ 38.7 µM), the MIC (E.faecium 134 VRE) was 32 µg/mL (≈ 77.4 µM) and the MIC (S.epidermis St 358) was 16 µg/mL (≈ 38.7 µM). The MIC (MRSA DB 00026) was 32 µg/mL (≈ 77.4 µM), the MIC (E.faecalis ATCC 19433) was 32 µg/mL (≈ 77.4 µM) and the MIC (E.coli 7632) was greater than 32 µg/mL. The MIC (MRSE ATCC 35983) was 32 µg/mL (≈ 77.4 µM), the MIC (S.epidermidis ATCC 14990) was 8 µg/mL (≈ 19.3 µM) and the MIC [6] was 16 µg/mL (≈ 38.7 µM). It also gave an MIC (MRSA 252 BAA 1720) of 8 µg/mL (≈ 19.3 µM), an MIC (E.faecium ATCC 19434) of 16 µg/mL (≈ 38.7 µM) and an MIC (E.faecalis ATCC 29212) of 32 µg/mL (≈ 77.4 µM). It also gave an MIC (E.faecium ATCC 49224) of 32 µg/mL (≈ 77.4 µM), an MIC [7] of 16 µg/mL (≈ 38.7 µM) and an MIC (E.faecium 06076 VRE) greater than 32 µg/mL. The MIC (E.faecium ATCC 35667) was 8 µg/mL (≈ 19.3 µM) and the MIC (E.faecium 6A VRE) was 4 µg/mL (≈ 9.67 µM).
`COC(=S)NC[C@H]1CN(c2cc(F)c(N3CC[Si](C)(C)CC3)c(F)c2)C(=O)O1` [NDS-10055, (S)—O-methyl(3-(4-(4,4-dimethyl-1,4-azasilinan-1-yl)-3,5-difluorophenyl)-2-oxooxazolidin-5-yl)methylcarbamothioate] was tested, and the MIC [3, 8] was greater than 100 µg/mL.
In the case of `CC(=O)NC[C@H]1CN(c2cc(F)c(N3CC[Si](C)(c4ccccc4)CC3)c(F)c2)C(=O)O1` [NDS-10068, (S)—N-((3-(3,5-difluoro-4-(4-methyl-4-phenyl-1,4-azasilinan-1-yl)phenyl)-2-oxooxazolidin-5-yl)methyl)acetamide], the MIC [3, 8] is reported as greater than 100 µg/mL.
`CCC(=O)NC[C@H]1CN(c2cc(F)c(N3CC[Si](C)(c4ccccc4)CC3)c(F)c2)C(=O)O1` [NDS-10069, (S)—N-((3-(3,5-difluoro-4-(4-methyl-4-phenyl-1,4-azasilinan-1-yl)phenyl)-2-oxooxazolidin-5-yl)methyl)propionamide] showed an MIC [3, 8] of 50 µg/mL (≈ 106 µM).
`CO[C@H]1/C=C/O[C@@]2(C)Oc3c(C)c(O)c4c(O)c(c(/C=N/N5CCN(C)CC5)c(O)c4c3C2=O)NC(=O)/C(C)=C\C=C\[C@H](C)[C@H](O)[C@@H](C)[C@@H](O)[C@@H](C)[C@H](OC(C)=O)[C@@H]1C` [Rifampicin, reference compound] gave an MIC ([3]; inhibition of Mycobacterium tuberculosis H37Rv growth, 7H9-OADC media, 37° C., visual readout) of 0.3 µg/mL (≈ 0.365 µM).
